The source of these data is US10030007B2, “Quinazolin-THF-amines as PDE1 inhibitors” (H. Lundbeck A/S, priority 2013, dated 2018).

Holding throughout (type): biochemical
Details in all cases: 15 nM tritium labelled cAMP, 1 h at room temperature, SPA beads

Experiment [1] has as its target PDE1C (Homo sapiens, UniProt Q14123). Description: PDE1 inhibition assay (SPA), PDE1C. As for the experimental part:
(§1) PDE1A, PDE1B and PDE1C assays were performed as follows: the assays was performed in 60 μL samples containing a fixed amount of the PDE1 enzyml (sufficient to convert 20-25% of the cyclic nucleotide substrate), a buffer (50 mM HEPES pH 7.6; 10 mM MgCl2; 0.02% Tween20), 0.1 mg/ml BSA, 15 nM tritium labelled cAMP and varying amounts of inhibitors. Reactions were initiated by addition of the cyclic nucleotide substrate, and reactions were allowed to proceed for 1 h at room temperature before being terminated through mixing with 20 μL (0.2 mg) yttrium silicate SPA beads (PerkinElmer). The beads were allowed to settle for 1 h in the dark before the plates were counted in a Wallac 1450 Microbeta counter. The measured signals were converted to activity relative to an uninhibited control (100%) and IC50 values were calculated using XlFit (model 205, IDBS).

In experiment [2] the target is PDE1B (Homo sapiens, UniProt Q01064). Description: PDE1 inhibition assay (SPA), PDE1B. The protocol: as §1
Experiment [3] addresses PDE1A (Homo sapiens, UniProt P54750). Description: PDE1 inhibition assay (SPA), PDE1A. The protocol:
as §1

Chain of PDE1A (P54750 whole entry): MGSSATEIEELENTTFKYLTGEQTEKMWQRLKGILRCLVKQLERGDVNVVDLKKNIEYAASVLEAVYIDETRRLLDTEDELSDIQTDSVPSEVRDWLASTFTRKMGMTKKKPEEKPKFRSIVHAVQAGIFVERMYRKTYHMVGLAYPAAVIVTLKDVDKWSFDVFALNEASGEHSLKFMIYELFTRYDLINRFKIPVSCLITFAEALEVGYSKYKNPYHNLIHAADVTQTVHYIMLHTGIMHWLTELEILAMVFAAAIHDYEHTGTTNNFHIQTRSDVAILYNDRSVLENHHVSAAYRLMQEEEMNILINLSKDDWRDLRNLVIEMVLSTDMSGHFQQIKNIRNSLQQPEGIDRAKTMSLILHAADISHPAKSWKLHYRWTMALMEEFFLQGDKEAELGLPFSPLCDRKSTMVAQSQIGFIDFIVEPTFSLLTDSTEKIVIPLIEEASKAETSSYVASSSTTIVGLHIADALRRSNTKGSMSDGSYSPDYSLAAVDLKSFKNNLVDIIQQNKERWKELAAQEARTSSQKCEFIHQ
Chain of PDE1B (Q01064 whole entry): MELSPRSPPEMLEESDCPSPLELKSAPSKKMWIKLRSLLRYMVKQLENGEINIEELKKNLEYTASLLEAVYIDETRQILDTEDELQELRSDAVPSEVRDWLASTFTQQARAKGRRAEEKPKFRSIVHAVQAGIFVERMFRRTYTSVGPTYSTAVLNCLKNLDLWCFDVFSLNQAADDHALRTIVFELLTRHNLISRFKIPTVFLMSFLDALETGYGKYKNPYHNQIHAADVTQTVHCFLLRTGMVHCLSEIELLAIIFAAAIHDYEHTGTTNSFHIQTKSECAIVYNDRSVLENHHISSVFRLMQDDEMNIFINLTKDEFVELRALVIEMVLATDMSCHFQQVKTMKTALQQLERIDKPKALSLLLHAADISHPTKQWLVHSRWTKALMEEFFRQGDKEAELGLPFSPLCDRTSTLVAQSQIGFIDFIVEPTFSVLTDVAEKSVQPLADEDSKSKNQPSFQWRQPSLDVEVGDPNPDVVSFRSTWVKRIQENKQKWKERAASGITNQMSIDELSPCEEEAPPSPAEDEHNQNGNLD
Chain of PDE1C (Q14123 whole entry): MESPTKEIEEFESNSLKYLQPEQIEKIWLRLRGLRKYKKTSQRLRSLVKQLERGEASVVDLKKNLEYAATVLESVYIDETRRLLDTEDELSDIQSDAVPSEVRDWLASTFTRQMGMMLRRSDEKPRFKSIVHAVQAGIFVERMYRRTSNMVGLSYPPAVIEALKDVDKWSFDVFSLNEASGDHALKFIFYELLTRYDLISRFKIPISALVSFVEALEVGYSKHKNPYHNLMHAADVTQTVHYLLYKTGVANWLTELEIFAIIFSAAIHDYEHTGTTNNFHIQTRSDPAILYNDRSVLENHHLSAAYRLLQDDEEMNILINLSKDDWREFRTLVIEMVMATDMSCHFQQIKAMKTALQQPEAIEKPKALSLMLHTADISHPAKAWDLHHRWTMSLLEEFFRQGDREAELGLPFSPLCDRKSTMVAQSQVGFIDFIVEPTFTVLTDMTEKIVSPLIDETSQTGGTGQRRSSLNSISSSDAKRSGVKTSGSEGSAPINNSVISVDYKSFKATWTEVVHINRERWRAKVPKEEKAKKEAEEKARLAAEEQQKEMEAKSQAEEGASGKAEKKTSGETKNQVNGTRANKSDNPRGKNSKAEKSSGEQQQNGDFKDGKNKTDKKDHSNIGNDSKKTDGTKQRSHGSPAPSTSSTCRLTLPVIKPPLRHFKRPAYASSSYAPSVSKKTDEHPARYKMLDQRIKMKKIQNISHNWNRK

On to `COc1ccc2c(NC3CCOC3C3CC3)ncnc2c1OC` (stereo not drawn) [Compound 25, N-(2-Cyclopropyltetrahydrofuran-3-yl)-7,8-dimethoxyquinazolin-4-amine], for which the IC50 (commonly the concentration that gives 50% inhibition) amounted to 1.3 µM in experiment [1], 0.26 µM in experiment [2] and 2.4 µM in experiment [3].

`COc1ccc2c(N[C@@H]3CCO[C@H]3C3CC3)ncnc2c1OC` (relative stereo) [Compound 2, trans-N-(-2-cyclopropyltetrahydrofuran-3-yl)-7,8-dimethoxyquinazolin-4-amine]: the IC50 came out at 1.3 µM in experiment [1], 0.26 µM in experiment [2] and 2.4 µM in experiment [3].
